Experimental data taken from PMC6792352, “Limited Chemical Structural Diversity Found to Modulate Thyroid Hormone Receptor in the Tox21 Chemical Library” (Environmental Health Perspectives, 2019).
Structures can show the parent of a compound that is named as a salt.

Test: in vitro
Conditions: rat, gh3-tre-luc cells, AC50 (uM) modified / 1000

| Compound | CC50 at 24 h [µM] |
| --- | --- |
| Cc1nnc(C(=O)NC(C)(C)c2nc(C(=O)NCc3ccc(F)cc3)c(O)c(=O)n2C)o1 [Raltegravir] | > 50 |
| C=CC(=O)OCC1CCCO1 (centres unmarked) [Tetrahydrofurfuryl acrylate] | > 90 |
| Cc1nc2n(c(=O)c1CCN1CCC(c3noc4cc(F)ccc34)CC1)CCCC2 [Risperidone] | > 50 |
| CNCCc1ccccn1 [Betahistine mesylate] | > 20 |
| c1cc[n+]2c(c1)-c1cccc[n+]1CC2 [Diquat dibromide monohydrate] | > 50 |
| CCCn1cc[n+](C)c1 [1-Methyl-3-propylimidazolium iodide] | > 90 |
| CCCCCCCCOCCC#N [3-(Octyloxy)propanenitrile] | > 90 |
| CC1=C(C=O)C(C)(C)CC=C1 [Safranal] | > 100 |
| COC(=O)c1ccc(C(=O)OC)c(C(=O)OC)c1 [Trimethyl benzene-1,2,4-tricarboxylate] | > 90 |
| CCC(C)CO (centres unmarked) [2-Methyl-1-butanol] | > 100 |
| COC(=O)CCC(=O)OC [Dimethyl succinate] | > 90 |
| CC[N+](CC)(CC)CC [Tetraethylammonium chloride] | > 100 |
| CCCCCCCCC(=O)OCC(C)OC(=O)CCCCCCCC (centres unmarked) [Propylene glycol dipelargonate] | > 100 |
| Cc1cc(-n2nc3ccc(Cl)cc3n2)c(O)c(C(C)(C)C)c1 [Bumetrizole] | > 50 |
| Cc1ccc2ccc3cccc4ccc1c2c34 [1-Methylpyrene] | > 90 |
| CCCC(=O)OCC [Ethyl butyrate] | > 90 |
| Cc1ccc(S(=O)(=O)NC(=O)NC2CCCCCCC2)cc1 [Glyoctamide] | > 50 |
| CC(C)OC(=O)c1cc(C(=O)OC(C)C)cc([N+](=O)[O-])c1 [Nitrothal-isopropyl] | > 90 |
| CCC(c1ccccc1)c1noc(CCN(CC)CC)n1 (centres unmarked) [Proxazole citrate] | > 50 |
| CCc1cccc(O)c1 [3-Ethylphenol] | > 90 |
| CN1CCN(CC/C=C2/c3ccccc3Sc3ccc(S(=O)(=O)N(C)C)cc32)CC1 [Thiothixene] | 10.7 |

| Compound | CC50 at 24 h [µM] |
| --- | --- |
| Cc1ccc(N)nc1 [5-Methylpyridin-2-amine] | > 90 |
| O=C(O)CCCC[C@@H]1SC[C@@H]2NC(=O)N[C@@H]21 [Biotin] | > 90 |
| O=S1(=O)CC=CC1 [3-Sulfolene] | > 90 |
| CC1=NNC(=O)N(/N=C/c2cccnc2)C1 [Pymetrozine] | > 90 |
| CC(C)(C)c1ccc(CCOc2ncnc3ccccc23)cc1 [Fenazaquin] | > 90 |
| COCCOCCOCCOC [Triethylene glycol dimethyl ether] | > 90 |
| CO[C@@]1(NC(=O)CSC(F)F)C(=O)N2C(C(=O)O)=C(CSc3nnnn3CCO)CO[C@@H]21 [Flomoxef] | > 50 |
| O[C@@H]([C@H](O)[C@H](O)CBr)[C@H](O)CBr [Dibromomannitol] | > 90 |
| CC(C)C[C@H]1C(=O)N2CCC[C@H]2[C@]2(O)O[C@](NC(=O)[C@@H]3C=C4c5cccc6[nH]c(Br)c(c56)C[C@H]4N(C)C3)(C(C)C)C(=O)N12 [Bromocriptine] | > 50 |
| Brc1c2ccccc2cc2ccccc12 [9-Bromoanthracene] | > 90 |
| CCCCCCCCCCCCN1CCCCCC1=O [Laurocapram] | 45.3 |
| Cc1cccn2c(=O)c(-c3nnn[nH]3)cnc12 [Pemirolast potassium] | > 50 |
| Cc1cc(SC2=C(O)C[C@@](CCc3ccc(N)cc3)(C(C)C)OC2=O)c(C(C)(C)C)cc1CO [CI-1029] | > 90 |
| CC(C)CCC(=O)CCC(C)C [2,8-Dimethylnonan-5-one] | > 90 |
| CSCCCN=C=S [3-(Methylthio)propyl isothiocyanate] | > 90 |
| CCN(Cc1cccc(S(=O)(=O)O)c1)c1ccc(C(=C2C=CC(=[N+](CC)Cc3cccc(S(=O)(=O)[O-])c3)C=C2)c2ccccc2)cc1 [FD&C Green No. 1] | > 70 |
| Oc1ccc2[nH]cc(CCCCN3CC=C(c4ccccc4)CC3)c2c1 [Roxindole] | 7.71 |
| O=S(=O)(O)CO [Sodium hydroxymethanesulfonate] | > 90 |
| C[C@@H]1CCC[C@H](C)N1NC(=O)c1ccc(Cl)c(S(N)(=O)=O)c1 [Clopamide] | > 20 |
| NC(Cc1c[nH]c2ccccc12)C(=O)O (racemic) [dl-Tryptophan] | > 50 |
| CCN(C(=O)c1cc(C)cc(OC[C@H](C)Nc2ccncc2)c1)C(C)C [GW473178E methyl benzene sulphonic acid] | > 60 |

| Compound | CC50 at 24 h [µM] |
| --- | --- |
| C1=CCC2CC=CC2C1 (centres unmarked) [3a,4,7,7a-Tetrahydroindene] | > 90 |
| CCCCCCCCCCCCCCCC(=O)OC [Methyl hexadecanoate] | > 30 |
| C=C[C@H]1C[N@@]2CC[C@H]1C[C@@H]2[C@@H](O)c1ccnc2ccc(OC)cc12 [Quinidine] | 85.2 |
| C=CCCCCCCC=C [1,9-Decadiene] | > 90 |
| CCC(=O)Nc1ccc(Cl)c(Cl)c1 [Propanil] | > 90 |
| CC1CCCC(=O)C1=O (centres unmarked) [3-Methylcyclohexane-1,2-dione] | > 90 |
| CCCCCCCCC(CCCCCC)C(=O)O (centres unmarked) [2-Hexyldecanoic acid] | > 90 |
| CCN(CC)CCOc1ccc2c(c1)C(=O)c1cc(OCCN(CC)CC)ccc1-2 [Tilorone] | > 50 |
| c1coc(-c2nc3ccccc3[nH]2)c1 [Fuberidazole] | > 90 |
| COc1cccc2c1cc([N+](=O)[O-])c1c(C(=O)O)cc3c(c12)OCO3 [Sodium aristolochate-I] | 5.9 |
| CCC(C)c1cc(C(C)(C)C)c(O)c(C(C)(C)C)c1 (centres unmarked) [4-(Butan-2-yl)-2,6-di-tert-butylphenol] | > 90 |
| CCn1cc[n+](C)c1 [1-Ethyl-3-methylimidazolium thiocyanate] | > 90 |
| Cc1ccc(NC=O)c(C)c1 [N-(2,4-Dimethylphenyl)formamide] | > 90 |
| Oc1ccc(Oc2ccccc2)cc1 [4-Phenoxyphenol] | 35.8 |
| CO/N=C(\C(=O)N[C@@H]1C(=O)N2C(C(=O)O)=C(CSc3nc(=O)c(=O)[nH]n3C)CS[C@H]12)c1csc(N)n1 [Ceftriaxone disodium trihydrate] | > 50 |
| Cc1ccc2ccccc2n1 [Quinaldine] | > 90 |
| CC1=CC=C(C(C)C)CC1 [alpha-Terpinene] | > 90 |
| OCC(CBr)(CBr)CBr [3-Bromo-2,2-bis(bromomethyl)propanol] | > 90 |
| N[C@@H](CS)C(=O)O [l-Cysteine hydrochloride] | > 90 |
| CN(C)CCc1c[nH]c2ccc(C[C@H]3COC(=O)N3)cc12 [Zolmitriptan] | > 50 |
| On1nnc2ccccc21 [1-Hydroxybenzotriazole] | > 90 |

| Compound | CC50 at 24 h [µM] |
| --- | --- |
| c1cc2c(c(NC3=NCCN3)c1)CCCC2 [Tramazoline tosylate] | > 50 |
| CC(C)=CC=O [3-Methylbut-2-enal] | > 100 |
| CCOC(=O)Cc1cccc2ccccc12 [Ethyl 1-naphthaleneacetate] | > 90 |
| Nc1ccncc1N [3,4-Diaminopyridine] | > 50 |
| Cc1ccnc2ccccc12 [Lepidine] | > 90 |
| C=C(C)[C@@H]1CC=C(C)C(=O)C1 [R-(-)-Carvone] | > 90 |
| NCCCC[C@H](N)C(=O)O [Lysine] | > 50 |
| Cc1ccc([N+](=O)[O-])c(N)c1 [5-Methyl-2-nitroaniline] | > 90 |
| CCc1c2c(nc3ccc(OC(=O)N4CCC(N5CCCCC5)CC4)cc13)-c1cc3c(c(=O)n1C2)COC(=O)[C@]3(O)CC [Irinotecan hydrochloride] | > 50 |
| C=CC1(C)OC(=O)N(c2cc(Cl)cc(Cl)c2)C1=O (centres unmarked) [Vinclozolin] | > 90 |
| CCOC(=O)CC(C)C [Ethyl isovalerate] | > 90 |
| O=C(O)c1ccc(CO)o1 [5-(Hydroxymethyl)-2-furoic acid] | > 90 |
| C=CC(C)(CCC=C(C)C)OC(=O)/C=C/c1ccccc1 (centres unmarked) [Linalyl cinnamate] | > 90 |
| C[C]1([Mn](=[C]=O)(=[C]=O)=[C]=O)C=CC=C1 [(Methylcyclopentadienyl)tricarbonylmanganese] | > 90 |
| OCC1CCC(CO)CC1 (centres unmarked) [1,4-Cyclohexanedimethanol] | > 90 |
| c1ccc(CSCc2ccccc2)cc1 [Benzyl sulfide] | > 90 |
| O=C(Nc1ccccc1)Nc1ccccc1 [Diphenylurea] | > 90 |
| OCC1CCCO1 (centres unmarked) [Tetrahydrofurfuryl alcohol] | > 90 |
| Cc1cccc(N)c1N [2,3-Diaminotoluene] | > 90 |

Same assay, conditions: rat, gh3-tre-luc cells, AC50 (uM) modified / 1000, Tox21_110001=Tox21_110368; viability, 1 nM T3 present, 24 h

| Compound | CC50 at 24 h [µM] |
| --- | --- |
| CCC1(CC)C(=O)C=CNC1=O [Pyrithyldione] | > 50 |

Same assay, conditions: rat, gh3-tre-luc cells, AC50 (uM) modified / 1000, Tox21_110001=Tox21_112703; viability, 1 nM T3 present, 24 h

| Compound | CC50 at 24 h [µM] |
| --- | --- |
| CN(C)C(Cc1ccccc1)c1ccccc1 (centres unmarked) [N,N-Dimethyl-1,2-diphenylethanamine] | > 50 |

Same assay, conditions: rat, gh3-tre-luc cells, AC50 (uM) modified / 1000, Tox21_110001=Tox21_200640; viability, 1 nM T3 present, 24 h

| Compound | CC50 at 24 h [µM] |
| --- | --- |
| C=C(Cl)CCl [2,3-Dichloro-1-propene] | > 90 |

Same assay, conditions: rat, gh3-tre-luc cells, AC50 (uM) modified / 1000, Tox21_110001=Tox21_201491; viability, 1 nM T3 present, 24 h

| Compound | CC50 at 24 h [µM] |
| --- | --- |
| CCCCC(CC)COC(=O)Cl (centres unmarked) [2-Ethylhexyl chloroformate] | > 90 |

Same assay, conditions: rat, gh3-tre-luc cells, AC50 (uM) modified / 1000, Tox21_110001=Tox21_202368; viability, 1 nM T3 present, 24 h

| Compound | CC50 at 24 h [µM] |
| --- | --- |
| O=Cc1cccc(Oc2ccccc2)c1 [3-Phenoxybenzaldehyde] | > 90 |

Same assay, conditions: rat, gh3-tre-luc cells, AC50 (uM) modified / 1000, Tox21_110001=Tox21_300689; viability, 1 nM T3 present, 24 h

| Compound | CC50 at 24 h [µM] |
| --- | --- |
| O=C(Cc1ccccc1)OCCc1ccccc1 [2-Phenylethyl phenylacetate] | > 90 |

Same assay, conditions: rat, gh3-tre-luc cells, AC50 (uM) modified / 1000, Tox21_110001=Tox21_301905; viability, 1 nM T3 present, 24 h

| Compound | CC50 at 24 h [µM] |
| --- | --- |
| CCOP(=O)(N=C1SCCS1)OCC [Phosfolan] | > 90 |
